{"source": "patent US7182965B2", "about": "“Soluble composition containing sporopollenin and the use thereof” (priority 2002, dated 2007)", "tested_on": "skin", "assay": "Skin compatibility, 48 h occlusive patch test, modified Draize evaluation", "details": "1% in water, 48 hours under occlusion, 50 test subjects", "protocol": "In this procedure, the GLP Guidelines and the recommendations of the COLIPA work group (Walker A. P. et al.: Test Guidelines for Assessment of Skin Compatibility of Cosmetic Finished Products in Man, Food and Chemical Toxicology 34, 1996, pages 651 to 660) were observed.\nThe model noxious substance sodium lauryl sulfate at a concentration of 1% in water served as the positive control. Water itself served as the negative control.\nThe evaluation of the test reaction was carried out after 48 and 72 hours in accordance with the modified Draize test."}
{"smiles": "CCCCCCCCCCCCOS(=O)(=O)[O-].[Na+]", "note": "[SDS, sodium lauryl sulfate]", "values": [{"measurement": "positive reaction, number of test subjects", "result": 14, "unit": "test subjects"}]}
